From patent US20250353873A1, “COMPOUNDS AND METHODS FOR MODULATING APOE EXPRESSION” (Ionis Pharmaceuticals, Inc., priority 2024, published 2025)
Strand notation (5' to 3'): a small letter for the sugar, then the base; units joined by * are phosphorothioate-linked, units joined directly phosphodiester-linked; [ ] holds rarer units or linkages, { } end groups; capitals alone tell only the bases. [ms] = mesyl phosphoramidate linkage; e = 2'-O-(2-methoxyethyl) (MOE); k = constrained ethyl (cEt); [5mC] = 5-methylcytosine; d = 2'-deoxy (DNA)

Tests used:
human APOE RNA [1] = experiment: Dose-dependent inhibition of human APOE RNA in HepG2 cells, electroporation, 50,000 cells per well, RT-PCR normalized to GAPDH (Example 4, Tables 8-10); assay type: cell-based; conditions: HepG2, electroporation, 24-hour treatment
Method: Modified oligonucleotides selected from the examples above were tested at various doses in HepG2 cells. The modified oligonucleotides were tested in a series of experiments that had the same culture conditions. Each experiment is identified in separate tables below.
HepG2 cells plated at a density of 50,000 cells per well were treated by electroporation with various concentrations of modified oligonucleotide as specified in the tables below. […] APOE RNA levels were measured using the human primer probe set RTS3073 (forward sequence […], designated herein as SEQ ID NO: 7; reverse sequence CCATCAGCGCCCTCAGTT, designated herein as SEQ ID NO: 8; probe sequence […], designated herein as SEQ ID NO:9). APOE RNA levels were normalized to human GAPDH. […] Results are presented as percent APOE RNA, relative to the amount of APOE RNA in untreated control cells (UTC).

human APOE RNA [2] = experiment: Activity in APOE C57BL/6NTac-Apoeem7250 knock-in mice, single ICV bolus, 4 weeks (Example 10); assay type: in vivo; conditions: single ICV bolus 300 μg, 4 weeks post treatment, normalized to mouse Ppia
Method: Modified oligonucleotides described above were tested in the APOE C57BL/6NTac-Apoeem7250 knock-in mouse model described above.
APOE C57BL/6NTac-Apoeem7250 knock-in mice were divided into groups of 2-4 mice each. Each mouse received a single ICV bolus of 300 μg of modified oligonucleotide. A group of 3-4 mice received a single ICV bolus with PBS as a negative control.
Four weeks post treatment, mice were sacrificed and RNA was extracted from cortical brain tissue and spinal cord for quantitative real-time RT-PCR analysis of RNA expression of APOE using human primer probe set RTS3073 (described herein above). APOE RNA levels were normalized to mouse Ppia. Mouse Ppia was amplified using primer probe set m_cyclo24 (described herein above). Results are presented as percent human APOE RNA relative to the amount of human APOE RNA in PBS treated animals, (% control). Each experiment is identified in separate tables below.

human APOE RNA [3] = experiment: Activity in APOE C57BL/6NTac-Apoeem7250 knock-in mice, single ICV bolus, 8 weeks (Example 11); assay type: in vivo; conditions: single ICV bolus 300 μg, 8 weeks post treatment, normalized to mouse Ppia
Outline: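 Human APOE knock-in C57BL/6NTac mice given one ICV bolus of 300 μg oligonucleotide; PBS-dosed group as control. At 8 weeks, cortex and spinal cord RNA measured by qRT-PCR (human probe RTS3073), normalized to mouse Ppia, expressed as % of PBS control.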

human APOE RNA [4] = experiment: Activity in APOE C57BL/6NTac-Apoeem7250 knock-in mice, single ICV bolus, 16 weeks (Example 12); assay type: in vivo; conditions: single ICV bolus 300 μg, 16 weeks post treatment, normalized to mouse Ppia
Outline: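 Knock-in mice (3-4 per group) received one ICV bolus of 300 μg oligonucleotide, PBS as control. After 16 weeks, human APOE RNA in cortex and spinal cord measured by RT-qPCR, normalized to mouse Ppia, and reported as % of PBS control.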

| Substance | APOE RNA (% UTC) (human APOE RNA [1]; 5 nM) | APOE RNA (% UTC) (human APOE RNA [1]; 13 nM) | APOE RNA (% UTC) (human APOE RNA [1]; 33 nM) | APOE RNA (% UTC) (human APOE RNA [1]; 82 nM) | APOE RNA (% UTC) (human APOE RNA [1]; 205 nM) | APOE RNA (% UTC) (human APOE RNA [1]; 512 nM) | APOE RNA (% UTC) (human APOE RNA [1]; 1,280 nM) | APOE RNA (% UTC) (human APOE RNA [1]; 3,200 nM) | APOE RNA (% UTC) (human APOE RNA [1]; 8,000 nM) | APOE RNA (% UTC) (human APOE RNA [1]; 20,000 nM) | IC50 (human APOE RNA [1]) [µM] | APOE RNA (% control) Cortex (human APOE RNA [2]) [% control] | APOE RNA (% control) Spinal Cord (human APOE RNA [2]) [% control] | APOE RNA (% control) Cortex (human APOE RNA [3]) [% control] | APOE RNA (% control) Spinal Cord (human APOE RNA [3]) [% control] | APOE RNA (% control) Cortex (human APOE RNA [4]) [% control] | APOE RNA (% control) Spinal Cord (human APOE RNA [4]) [% control] |
| --- | --- | --- | --- | --- | --- | --- | --- | --- | --- | --- | --- | --- | --- | --- | --- | --- | --- |
| 1746792 (k[5mC]*dT[ms]dT[ms]kG*dG[ms]kT*dG[ms]dA[ms]dA[ms]dT*d[5mC]*dT*dT*dT*dA[ms]dT*kT*kA*dA[ms]kA; antisense) [Compound 1746792] | 80 | 102 | 90 | 87 | 68 | 44 | 17 | 12 | 8 | 6 | 0.4 | 71 | 49 |  |  |  |  |
| 1746812 (k[5mC]*dT[ms]dT[ms]dG[ms]kG*kT*dG[ms]dA[ms]dA[ms]dT*d[5mC]*dT*dT*dT*dA[ms]dT*dT[ms]kA*kA*kA; antisense) [Compound 1746812] | 105 | 109 | 90 | 102 | 86 | 76 | 51 | 31 | 19 | 11 | 1.5 | 68 | 79 |  |  |  |  |
| 1746786 (k[5mC]*kT*dT[ms]dG[ms]kG*dT[ms]dG[ms]dA[ms]dA[ms]dT*d[5mC]*dT*dT*dT*dA[ms]dT*kT*kA*dA[ms]kA; antisense) [Compound 1746786] | 85 | 93 | 90 | 75 | 87 | 63 | 39 | 34 | 18 | 14 | 1.01 | 79 | 52 |  |  |  |  |
| 1746795 (k[5mC]*kT*dT[ms]kG*dG[ms]dT[ms]dG[ms]dA[ms]dA[ms]dT*d[5mC]*dT*dT*dT*dA[ms]dT*kT*dA[ms]kA*kA; antisense) [Compound 1746795] | 119 | 115 | 110 | 108 | 99 | 53 | 57 | 28 | 12 | 6 | 1.29 | 75 | 75 |  |  |  |  |
| 1746793 (k[5mC]*dT[ms]dT[ms]dG[ms]kG*kT*dG[ms]dA[ms]dA[ms]dT*d[5mC]*dT*dT*dT*dA[ms]dT*kT*kA*dA[ms]kA; antisense) [Compound 1746793] | 102 |  | 96 | 96 | 53 | 54 | 34 | 31 | 1 | 2 | 0.56 | 86 | 47 |  |  |  |  |
| 1746807 (k[5mC]*kT*dT[ms]dG[ms]dG[ms]kT*dG[ms]dA[ms]dA[ms]dT*d[5mC]*dT*dT*dT*dA[ms]dT*dT[ms]kA*kA*kA; antisense) [Compound 1746807] | 119 | 127 | 111 | 86 | 88 | 62 | 52 | 29 | 16 | 30 | 1.43 | 90 | 119 |  |  |  |  |
| 1681020: 5-10-5 MOE gapmer GGTGAATCTTTATTAAACTA, linkages zsssszsssszzszssssz (antisense eG[ms]eG*eT*eG*eA*dA[ms]dT*d[5mC]*dT*dT*dT[ms]dA[ms]dT*dT[ms]dA*eA*eA*e[5mC]*eT[ms]eA) [compound 1681020] |  |  |  |  |  |  |  |  |  |  |  |  |  | 63 | 35 | 92 | 59 |
| 1693048: 5-10-5 MOE gapmer CTTGGTGAATCTTTATTAAA, linkages ssssszzzzssssszosss (antisense e[5mC]*eT*eT*eG*eG*dT[ms]dG[ms]dA[ms]dA[ms]dT*d[5mC]*dT*dT*dT*dA[ms]eTeT*eA*eA*eA) [compound 1693048] |  |  |  |  |  |  |  |  |  |  |  |  |  | 97 | 87 | 105 | 71 |
| 1746806 (k[5mC]*kT*dT[ms]dG[ms]kG*dT[ms]dG[ms]dA[ms]dA[ms]dT*d[5mC]*dT*dT*dT*dA[ms]dT*dT[ms]kA*kA*kA; antisense) [Compound 1746806] | 122 | 101 | 107 | 91 | 83 | 80 | 57 | 39 | 25 | 37 | 2.58 | 92 | 75 |  |  |  |  |
| 1681004: 5-10-5 MOE gapmer GGTGAATCTTTATTAAACTA, linkages ssooszsssszzszsooss (antisense eG*eG*eTeGeA*dA[ms]dT*d[5mC]*dT*dT*dT[ms]dA[ms]dT*dT[ms]dA*eAeAe[5mC]*eT*eA) [compound 1681004] |  |  |  |  |  |  |  |  |  |  |  |  |  | 120 | 89 | 127 | 61 |
| 1746802 (k[5mC]*dT[ms]dT[ms]dG[ms]kG*kT*dG[ms]dA[ms]dA[ms]dT*d[5mC]*dT*dT*dT*dA[ms]dT*kT*dA[ms]kA*kA; antisense) [Compound 1746802] | 76 | 108 | 74 | 72 | 58 | 57 | 36 | 47 | 39 | 3 | 0.78 | 72 | 52 |  |  |  |  |
| 1746787 (k[5mC]*kT*dT[ms]dG[ms]dG[ms]kT*dG[ms]dA[ms]dA[ms]dT*d[5mC]*dT*dT*dT*dA[ms]dT*kT*kA*dA[ms]kA; antisense) [Compound 1746787] | 148 | 108 | 92 | 97 | 87 | 68 | 56 | 37 | 11 | 14 | 1.52 | 76 | 71 |  |  |  |  |
